Test [1] relates to HT-29 colon carcinoma cells. The test is described as follows: Inhibition of HT-29 tumor cell proliferation (MTT cytotoxicity, 72 h). The class given is cell-based. As to conditions: HT-29, 72 h. The method, then: Cytotoxicity may be measured using standard methodology for adherent cell lines such as the microculture tetrazolium assay (MTT). Details of this assay have been published Cancer Research 48:589-601, 1988). Exponentially growing cultures of tumor cells such as the HT-29 colon carcinoma or LX-1 lung tumor are used to make microtiter plate cultures. Cells are seeded at 5000-20,000 cells per well in 96-well plates (in 150 μl of media), and grown overnight at 37° C. Test compounds are added, in dilutions varying from 10^-4 M to 10^-10 M. The cells are then incubated for 48-72 hours. To determine the number of viable cells in each well, the MTT dye is added (50 μl of 3 mg/ml solution of 3-(4,5-dimethylthiazol-2-yl)-2,5-diphenyltetrazolium bromide in saline). This mixture is incubated at 37° C. for 5 hours, and then 50 μl of 25% strength SDS (pH 2) is added to each well. After overnight incubation, the absorbance of each well at 550 nm is read using an ELISA reader. The values for the mean +/- SD of data from quadruplicate wells are calculated, using the formula % T/C (% cells treated/control). [formula]
The concentration of test compound which gives a T/C of 50% growth inhibition is designated as the IC50.
Inhibition of HT-29 tumor cell proliferation^a.
^a Dihydrodibenzoquinolinedione cytotoxicity studies were performed a
follows: HT29 cells were seeded (5000) into each well of 96 well dishes.
After plating overmight a titration of dihydrodibenzoquinolinedione was
added giving a final volume of 200 ul. Following incubation for 72 h 50 u
of MTT (3 mg/ml) in PBS was added to each well and incubated for 5 hours
at 37° C. The reaction was stopped by the addition of 50 ul of 25%
SDS, pH 2. After an overnight incubation at 37° C. the absorbance,
due to metabolized MTT, was read with a plate reader at 550 nm.
Cytotoxicity was calculate as the well absorbance expressed as a
percentage on nondrug treated control. All estimates were made in
^b 10^-2 M stock solution made in 10% acetic acid then diluted in
^c 10^-2 M stock solution made in 10% DMSO then diluted in media.
^d 10^-4 M stock solution made in 10% acetic acid/10% DMSO then
^e 10^-2 M stock suspention made in DMSO then diluted in media to […]

A further test relates to M5076 murine sarcoma. Put plainly: In vivo anti-tumor activity on M5076 murine sarcoma (survival). The arrangement: species or system C57BL/6 mice. As to conditions: for % T/C: treated MST/control MST; for MST: treated on days 1.5 and 9. The method, then: Compounds according to the invention may be further tested in any of the various preclinical assays for in vivo activity which are indicative of clinical utility. Such assays may be conducted with human tumors implanted in nude mice as xenografts or mouse tumors implanted in conventional mice in the strain of origin (syngeneic), as is well known in this field. Test compounds are evaluated for their antitumor efficacy following administration to the tumor-bearing mice.
More specifically, human tumors which have been grown in athymic nude mice or mouse tumors grown in their synergeneic host are transplanted into new recipient animals, using either tumor fragments which are about 50 mg in size or 1×10^6 cells harvested from ascites fluid. The day of transplantation is designated as day 0 and the host mice are subsequently injected intravenously or intraperitoneally with the test compounds, in group of 5 to 10 mice per dose level. The compounds are administered either as a single dose or on an intermittent or frequent dosing schedule at doses from 0.1 to 100 mg/kg body weight. Tumor size of solid tumors are measured by vernier calipers in two directions and the volume estimated by the formula: […]
Life span studies following i.p. administration of tumor cells are evaluated on the base of median survival time (MST). The MST of drug treated (T) mice are compared to the MST of control (C) mice and expressed as T/C percent. Compounds producing a T/C percent of >100% indicates some reduction in tumor burden. Values of 125 to 150% may be considered to reflect moderate activity, values of 150 to 200% good to excellent activity, and >200% outstanding activity.
In vivo anti-tumor activity of a Dihydrodibenzoquinolinedione analog on M5076 murine sarcoma^a.
^a C57BL/6 mice (6 per group) were inoculated with 10^6 M5076
cells on day 0. Mice were treated on days 1.5 and 9 with the
dimethanesulfonate salt of example 1 at the dose levels shown. Mice died
as a consequence of tumor burden with median survival times (MST) as
shown. In both studies meaningful antitumor activity was produce as
indicated by a treated MST/Control MST percentage (% T/C) being

Where [2] appears, read: 10^-2 M stock solution made in 10% DMSO then diluted in media.
Setting [3] is: Homo sapiens, 10^-2 M stock solution made in 10% DMSO then diluted in media.
Setting [4] is: 10^-2 M stock solution made in 10% acetic acid then diluted in media.
[5] abbreviates: Homo sapiens, 10^-2 M stock solution made in 10% acetic acid then diluted in media.
Where [6] appears, read: Homo sapiens, 10^-4 M stock solution made in 10% acetic acid/10% DMSO then diluted in media.
Where [7] appears, read: 10^-2 M stock suspension made in DMSO then diluted in media to form a solution.

Each structure is given as a SMILES string. pIC50: −log10 of the molar value. “And” between values parts separate entries of the source, which are not always exact repeats. Equal entries are not always repeated. Structures can show the parent of a compound that is named as a salt.

The term pIC50 denotes the negative decadic logarithm of the IC50, by convention in mol/L.

As for `O=C1c2cccc3cc4ccccc4c(c23)C(=O)N1CCNCCCNCCN1C(=O)c2cccc3cc4ccccc4c(c23)C1=O` [1 2 CH3 --SO3 H salt], the pIC50 in test [1] (setting [2]) was 7.70; in test [1] (setting [3]), 8.00. The “% T/C” value in the test with M5076 murine sarcoma (Experiment 1, 1.8 mg/kg) is on record as 154%; in the test with M5076 murine sarcoma (Experiment 1, 2.6 mg/kg) it was 123%; in the test with M5076 murine sarcoma (Experiment 1, 4 mg/kg), “toxic”; with M5076 murine sarcoma (Experiment 2, 1.2 mg/kg), 128%; in the test on M5076 murine sarcoma (Experiment 2, 1.8 mg/kg), 98%; in the test on M5076 murine sarcoma (Experiment 2, 2.7 mg/kg) it was “toxic”. Besides, the MST is listed as 30 with M5076 murine sarcoma (Experiment 1, 1.8 mg/kg, control MST 19.5); 24 in the test on M5076 murine sarcoma (Experiment 1, 2.6 mg/kg, control MST 19.5); “toxic” in the test with M5076 murine sarcoma (Experiment 1, 4 mg/kg, control MST 19.5); 30 in the test on M5076 murine sarcoma (Experiment 2, 1.2 mg/kg, control MST 23.5); 23 in the test with M5076 murine sarcoma (Experiment 2, 1.8 mg/kg, control MST 23.5); “toxic” with M5076 murine sarcoma (Experiment 2, 2.7 mg/kg, control MST 23.5). In addition, in the test with M5076 murine sarcoma (both studies, reproducibly, meaningful antitumor activity), the “treated MST/Control MST percentage (% T/C)” value is listed as “greater than 125%”.

Take `O=C1c2cccc3cc4ccccc4c(c23)C(=O)N1CCNCCCNCCN1C(=O)c2cccc3cc4ccccc4c(c23)C1=O` [Example 1, N,N'-Bis[2-(1,2-dihydro-1,3-dioxo-3H-dibenz[de,h]isoquinoline-2-yl)ethyl]-1,3-propanediamine]: the pIC50 in test [1] (setting [4]) was 8.30; in test [1] (setting [5]) it was 8.40.

On to `O=C1c2cccc3cc4ccccc4c(c23)C(=O)N1CCNCCNCCN1C(=O)c2cccc3cc4ccccc4c(c23)C1=O` [Example 2, N,N'-Bis[2-(1,2-dihydro-1,3-dioxo-3H-dibenz[de,h]isoquinolin-2-yl)ethyl]-1,2-ethylenediamine], for which the pIC50 in test [1] (setting [4]) is 8.10; in test [1] (setting [5]), 8.00.

The compound `O=C1c2cccc3cc4ccccc4c(c23)C(=O)N1CCCNCCCCNCCCN1C(=O)c2cccc3cc4ccccc4c(c23)C1=O` [Example 3, N,N'-Bis[3-(1,2-dihydro-1,3-dioxo-3H-dibenz[de,h]isoquinolin-2-yl)propyl]-1,4-butanediamine] gave a pIC50 in test [1] (setting [5]) of 6.70.

`O=C1c2cccc3cc4ccccc4c(c23)C(=O)N1CCCCNCCCN1C(=O)c2cccc3cc4ccccc4c(c23)C1=O` [Example 4, [3-(1,2-dihydro-1,3-dioxo-3H-dibenz[de,h]isoquinolin-2-yl)propyl][4-(1,2-dihydro-1,3-dioxo-3,4-dibenz[de,h]isoquinolin-2-yl)butyl]amine]: the negative-log IC50 (pIC50) in test [1] (10^-4 M stock solution made in 10% acetic acid/10% DMSO then diluted in media) was 7.30; in test [1] (setting [6]), 7.05.

Compound `O=C1c2cccc3cc4ccccc4c(c23)C(=O)N1CCCNCCCN1C(=O)c2cccc3cc4ccccc4c(c23)C1=O` [Example 7, Bis[3-(1,2-dihydro-1,3-dioxo-3H-dibenz[de,h]isoquinolin-2-yl)propyl]amine] showed a pIC50 in test [1] (setting [5]) of 7.70.

As to `O=C1c2cccc3cc4ccccc4c(c23)C(=O)N1CCNCCN1C(=O)c2cccc3cc4ccccc4c(c23)C1=O` [Example 9, Bis[2-(1,2-dihydro-1,3-dioxo-3H-dibenz[de,h]isoquinolin-2-yl)ethyl)amine], in test [1] (setting [6]), the pIC50 was 7.70.

For the compound `O=C1c2cccc3cc4ccccc4c(c23)C(=O)N1CCCNCCNCCCN1C(=O)c2cccc3cc4ccccc4c(c23)C1=O` [Example 10, N,N'-Bis[3-(1,2-dihydro-1,3-dioxo-3H-dibenz[de,h]isoquinolin-2-yl)propyl]-1,2-ethylenediamine], the figures for the negative logarithm of the IC50 (pIC50) in test [1] (setting [4]) and in test [1] (setting [5]) were 7.05 and 7.00, respectively.

Turning to `O=C1c2cccc3cc4ccccc4c(c23)C(=O)N1CCCNCCCNCCCN1C(=O)c2cccc3cc4ccccc4c(c23)C1=O` [Example 11, N,N'-Bis[3-(1,2-dihydro-1,3-dioxo-3H-dibenz[de,h]isoquinolin-2-yl)propyl]-1,3-propanediamine], the pIC50 is 7.10 in test [1] (setting [4]) and 7.00 in test [1] (setting [5]).

For the compound `O=C1c2cccc3cc4c([N+](=O)[O-])cccc4c(c23)C(=O)N1CCNCCCNCCN1C(=O)c2cccc3cc4c([N+](=O)[O-])cccc4c(c23)C1=O` [Example 12, N,N'-Bis[2-(1,2-dihydro-8-nitro-1,3-dioxo-3H-dibenz[de,h]isoquinolin-2-yl)ethyl]-1,3-propanediamine], the pIC50 in test [1] (setting [7]) is 7.40; in test [1] (Homo sapiens, 10^-2 M stock suspension made in DMSO then diluted in media to form a solution), 7.52.

Turning to `O=C1c2cccc3cc4c([N+](=O)[O-])cccc4c(c23)C(=O)N1CCNCCNCCN1C(=O)c2cccc3cc4c([N+](=O)[O-])cccc4c(c23)C1=O` [Example 13, N,N'-Bis-[2-(1,2-dihydro-8-nitro-1,3-dioxo-3H-dibenz[de,h]isoquinolin-2-yl)ethyl]1,3-ethylenediamine], the pIC50 in test [1] (setting [7]) was 7.00 and 7.05.

For the compound `CN(CCN(C)CCN1C(=O)c2cccc3cc4ccccc4c(c23)C1=O)CCN1C(=O)c2cccc3cc4ccccc4c(c23)C1=O` [Example 14, N,N'-Bis[2-(1,2-dihydro-1,3-dioxo-3H-dibenz[de,h]isoquinolin-2-yl)ethyl]-N,N'-dimethyl-1,2-ethylenediamine], the results for the pIC50 in test [1] (setting [2]) and in test [1] (setting [3]) were 7.10 and 7.15, respectively.

The compound `O=C1c2cccc3cc4ccccc4c(c23)C(=O)N1CCNCCCCCNCCN1C(=O)c2cccc3cc4ccccc4c(c23)C1=O` [Example 15, N,N'-Bis[2-(1,2-dihydro-1,3-dioxo-3H-dibenz[de,h]isoquinolin-2-yl)ethyl]-1,5-pentanediamine] showed a pIC50 in test [1] (setting [3]) of 8.10.

For the origin of these results see US5703089A, “Dihydrodibenzisoquinolinediones” (Knoll Aktiengesellschaft, priority 1996, dated 1997).
